# From patent US6737383B1, “Herbicidal oxadiazolidines” (priority 1999, dated 2004)
# Key:
# velvetleaf = test: Test B pre/postemergence velvetleaf; assay type: in vivo, Abutilon theophrasti
# Procedure, shortened: (§1)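 Response is a visual 0-to-10 score relative to untreated plants, where 0 means no effect and 10 means complete control, taken twelve to sixteen days after application. Treatments went onto soil at planting and onto foliage of 1- to 4-leaf plants, using a surfactant-containing non-phytotoxic solvent.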
# surinam grass = test: Test B pre/postemergence surinam grass; assay type: in vivo, Brachiaria decumbens
# Procedure, shortened: as §1
# cocklebur = test: Test B pre/postemergence cocklebur; assay type: in vivo, Xanthium strumarium
# Procedure, shortened: as §1
# pigweed = test: Test B pre/postemergence pigweed; assay type: in vivo, Amaranthus retroflexus
# Procedure, shortened: as §1
# crabgrass = test: Test B pre/postemergence crabgrass; assay type: in vivo, Digitaria sanguinalis
# Procedure, shortened: as §1
# blackgrass = test: Test B pre/postemergence blackgrass; assay type: in vivo, Alopecurus myosuroides
# Procedure, shortened: as §1
# purple nutsedge = test: Test B pre/postemergence purple nutsedge; assay type: in vivo, Cyperus rotundus
# Procedure, shortened: as §1
# wild oat = test: Test B pre/postemergence wild oat; assay type: in vivo, Avena fatua
# Procedure, shortened: as §1
# sugar beet = test: Test B pre/postemergence sugar beet; assay type: in vivo, Beta vulgaris
# Procedure, shortened: as §1
# rape = test: Test B pre/postemergence rape; assay type: in vivo, Brassica napus
# Procedure, shortened: as §1
# wheat = test: Test B pre/postemergence wheat; assay type: in vivo, Triticum aestivum
# Procedure, shortened: as §1
# morningglory = test: Test B pre/postemergence morningglory; assay type: in vivo, Ipomoea hederacea
# Procedure, shortened: as §1
# soybean = test: Test B pre/postemergence soybean; assay type: in vivo, Glycine max
# Procedure, shortened: as §1
# corn = test: Test B pre/postemergence corn; assay type: in vivo, Zea mays
# Procedure, shortened: as §1
# bedstraw = test: Test B pre/postemergence bedstraw; assay type: in vivo, Galium aparine
# Procedure, shortened: as §1
# giant foxtail = test: Test B pre/postemergence giant foxtail; assay type: in vivo, Setaria faberii
# Procedure, shortened: as §1
# [1] = Postemergence, Rate 62 g/ha, scale of 0 to 10, 0 is no effect, 10 is complete control
# [2] = Postemergence, Rate 500 g/ha, scale 0 to 10, 0 is no effect, 10 is complete control
# [3] = Preemergence, Rate 62 g/ha, scale 0 to 10 (0 no effect, 10 complete control)
# [4] = Preemergence, Rate 125 g/ha, scale 0 to 10, 0 is no effect, 10 is complete control
# [5] = Preemergence, Rate 500 g/ha, scale of 0 to 10 where 0 is no effect and 10 is complete control
# [6] = Rate 250 g/ha, Postemergence, scale of 0 to 10 where 0 is no effect and 10 is complete control
# [7] = Postemergence, Rate 125 g/ha, scale 0 to 10, 0 is no effect, 10 is complete control
compound,measurement,setting,value
CC(C)N(C(=O)n1oc(=O)n(CCC(F)(F)F)c1=O)c1ccc(Cl)cc1 [Compound 554],Velvetleaf plant response rating,velvetleaf; [1],0
same,"Plant response rating, Velvetleaf",velvetleaf; [2],0
same,Velvetleaf plant response rating,velvetleaf; [3],0
same,Velvetleaf plant response rating,velvetleaf; [4],0
same,Velvetleaf plant response rating (0 to 10 scale),"velvetleaf; Preemergence, Rate 250 g/ha",0
same,Velvetleaf plant response rating,velvetleaf; [5],0
same,"Plant response rating, Velvetleaf",velvetleaf; [6],0
same,B. signalgrass plant response rating,surinam grass; [1],0
same,B. signalgrass plant response rating,surinam grass; [7],0
same,"Plant response rating, B. signalgrass",surinam grass; [2],3
same,B. signalgrass plant response rating,surinam grass; [3],7
same,B. signalgrass plant response rating,surinam grass; [4],7
same,"B. signalgrass plant response rating (0 to 10 scale, 0 is no effect, 10 is complete control)","surinam grass; Preemergence, Rate 250 g/ha",6
same,B. signalgrass plant response rating,surinam grass; [5],10
same,"Plant response rating, B. signalgrass",surinam grass; [6],0
same,Cocklebur plant response rating,cocklebur; [1],0
same,Cocklebur plant response rating,cocklebur; [7],0
same,"Plant response rating, Cocklebur",cocklebur; [2],3
same,Cocklebur plant response rating,cocklebur; [3],0
same,Cocklebur plant response rating,cocklebur; [4],0
same,Cocklebur plant response rating (0 to 10 scale),"cocklebur; Preemergence, Rate 250 g/ha",0
same,Cocklebur plant response rating,cocklebur; [5],0
same,"Plant response rating, Cocklebur",cocklebur; [6],0
same,Redroot pigweed plant response rating,pigweed; [1],0
same,Redroot pigweed plant response rating,pigweed; [3],9
same,Redroot pigweed plant response rating,pigweed; [5],10
same,"Plant response rating, Redroot pigweed",pigweed; [6],7
same,Crabgrass plant response rating,crabgrass; [1],0
same,"Plant response rating, Crabgrass",crabgrass; [2],9
same,Crabgrass plant response rating,crabgrass; [3],9
same,Crabgrass plant response rating,crabgrass; [4],10
same,Crabgrass plant response rating,crabgrass; [5],10
same,"Plant response rating, Crabgrass",crabgrass; [6],9
same,Blackgrass plant response rating,blackgrass; [1],0
same,Blackgrass plant response rating,blackgrass; [7],3
same,Blackgrass plant response rating,blackgrass; [4],4
same,Blackgrass plant response rating (0 to 10 scale),"blackgrass; Preemergence, Rate 250 g/ha",4
same,Blackgrass plant response rating,blackgrass; [5],7
same,"Plant response rating, Blackgrass",blackgrass; [6],7
same,Nutsedge plant response rating,purple nutsedge; [1],0
same,Nutsedge plant response rating,purple nutsedge; [7],0
same,"Plant response rating, Nutsedge",purple nutsedge; [2],0
same,Nutsedge plant response rating,purple nutsedge; [3],0
same,Nutsedge plant response rating,purple nutsedge; [4],0
same,Nutsedge plant response rating (0 to 10 scale),"purple nutsedge; Preemergence, Rate 250 g/ha",0
same,Nutsedge plant response rating,purple nutsedge; [5],0
same,"Plant response rating, Nutsedge",purple nutsedge; [6],0
same,Wild oats plant response rating,wild oat; [1],0
same,Wild oats plant response rating,wild oat; [3],0
same,Wild oats plant response rating,wild oat; [4],2
same,Wild oats plant response rating (0 to 10 scale),"wild oat; Preemergence, Rate 250 g/ha",2
same,Wild oats plant response rating,wild oat; [5],9
same,"Plant response rating, Wild oats",wild oat; [6],2
same,Sugarbeets plant response rating,sugar beet; [1],0
same,Sugarbeets plant response rating,sugar beet; [3],0
same,Sugarbeets plant response rating,sugar beet; [4],0
same,Sugarbeets plant response rating (0 to 10 scale),"sugar beet; Preemergence, Rate 250 g/ha",0
same,Sugarbeets plant response rating,sugar beet; [5],6
same,"Plant response rating, Sugarbeets",sugar beet; [6],7
same,Rape plant response rating,rape; [1],0
same,Rape plant response rating,rape; [7],0
same,"Plant response rating, Rape",rape; [2],3
same,Rape plant response rating,rape; [3],0
same,Rape plant response rating,rape; [4],0
same,Rape plant response rating (0 to 10 scale),"rape; Preemergence, Rate 250 g/ha",0
same,Rape plant response rating,rape; [5],3
same,"Plant response rating, Rape",rape; [6],0
same,Wheat plant response rating,wheat; [1],0
same,Wheat plant response rating,wheat; [3],3
same,Wheat plant response rating,wheat; [4],3
same,Wheat plant response rating,wheat; [5],6
same,"Plant response rating, Wheat",wheat; [6],2
same,Morningglory plant response rating,morningglory; [1],1
same,Morningglory plant response rating,morningglory; [7],2
same,"Plant response rating, Morningglory",morningglory; [2],7
same,Morningglory plant response rating,morningglory; [4],0
same,Morningglory plant response rating (0 to 10 scale),"morningglory; Preemergence, Rate 250 g/ha",0
same,Morningglory plant response rating,morningglory; [5],0
same,"Plant response rating, Morningglory",morningglory; [6],5
same,Soybean plant response rating,soybean; [1],2
same,"Plant response rating, Soybean",soybean; [2],3
same,Soybean plant response rating,soybean; [3],0
same,Soybean plant response rating,soybean; [4],0
same,Soybean plant response rating (0 to 10 scale),"soybean; Preemergence, Rate 250 g/ha",3
same,Soybean plant response rating,soybean; [5],3
same,"Plant response rating, Soybean",soybean; [6],3
same,Corn plant response rating,corn; [1],0
same,Corn plant response rating,corn; [7],0
same,"Plant response rating, Corn",corn; [2],0
same,Corn plant response rating,corn; [3],0
same,Corn plant response rating,corn; [4],0
same,Corn plant response rating (0 to 10 scale),"corn; Preemergence, Rate 250 g/ha",0
same,Corn plant response rating,corn; [5],2
same,"Plant response rating, Corn",corn; [6],0
same,Bedstraw plant response rating,bedstraw; [1],5
same,Bedstraw plant response rating,bedstraw; [7],5
same,"Plant response rating, Bedstraw",bedstraw; [2],9
same,Bedstraw plant response rating,bedstraw; [3],0
same,Bedstraw plant response rating,bedstraw; [4],0
same,Bedstraw plant response rating (0 to 10 scale),"bedstraw; Preemergence, Rate 250 g/ha",0
same,Bedstraw plant response rating,bedstraw; [5],0
same,"Plant response rating, Bedstraw",bedstraw; [6],7
same,Giant foxtail plant response rating,giant foxtail; [1],2
same,Giant foxtail plant response rating,giant foxtail; [7],6
same,"Plant response rating, Giant foxtail",giant foxtail; [2],8
same,Giant foxtail plant response rating,giant foxtail; [3],9
same,Giant foxtail plant response rating,giant foxtail; [4],9
same,Giant foxtail plant response rating (0 to 10 scale),"giant foxtail; Preemergence, Rate 250 g/ha",9
same,Giant foxtail plant response rating,giant foxtail; [5],10
same,"Plant response rating, Giant foxtail",giant foxtail; [6],8
